# Experimental data published in ChEMBL document CHEMBL5291721, “A preclinical secondary pharmacology resource illuminates target-adverse drug reaction associations of marketed drugs” (Nat Commun, 2023).
# Assays:
# Bile salt export pump = Bile salt export pump (Homo sapiens, UniProt O95342); assay type: functional
# [1] = molecular target: Voltage-gated inwardly rectifying potassium channel KCNH2 (Homo sapiens, UniProt Q12809); assay type: functional; conditions: read-out: AC50
# [2] = molecular target: T1, Equilibrative nucleoside transporter 1 (Homo sapiens, UniProt Q99808)
# T1 sequence (Q99808 whole entry): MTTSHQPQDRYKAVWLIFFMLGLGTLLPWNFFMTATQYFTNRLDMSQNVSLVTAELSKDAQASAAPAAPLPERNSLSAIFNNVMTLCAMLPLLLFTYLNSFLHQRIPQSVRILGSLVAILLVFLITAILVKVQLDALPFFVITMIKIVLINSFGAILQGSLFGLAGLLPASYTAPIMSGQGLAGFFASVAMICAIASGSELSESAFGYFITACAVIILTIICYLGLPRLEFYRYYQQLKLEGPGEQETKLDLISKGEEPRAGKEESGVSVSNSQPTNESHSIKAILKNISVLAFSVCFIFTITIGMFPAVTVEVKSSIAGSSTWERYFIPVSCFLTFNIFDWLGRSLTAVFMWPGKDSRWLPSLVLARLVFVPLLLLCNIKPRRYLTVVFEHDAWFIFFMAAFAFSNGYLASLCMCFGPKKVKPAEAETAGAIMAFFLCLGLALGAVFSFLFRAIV
# [3] = molecular target: Neuronal acetylcholine receptor subunit alpha-4 (Homo sapiens, UniProt P43681)
# [4] = molecular target: T2, Alpha-2C adrenergic receptor (Homo sapiens, UniProt P18825); assay type: functional
# T2 sequence (P18825 whole entry): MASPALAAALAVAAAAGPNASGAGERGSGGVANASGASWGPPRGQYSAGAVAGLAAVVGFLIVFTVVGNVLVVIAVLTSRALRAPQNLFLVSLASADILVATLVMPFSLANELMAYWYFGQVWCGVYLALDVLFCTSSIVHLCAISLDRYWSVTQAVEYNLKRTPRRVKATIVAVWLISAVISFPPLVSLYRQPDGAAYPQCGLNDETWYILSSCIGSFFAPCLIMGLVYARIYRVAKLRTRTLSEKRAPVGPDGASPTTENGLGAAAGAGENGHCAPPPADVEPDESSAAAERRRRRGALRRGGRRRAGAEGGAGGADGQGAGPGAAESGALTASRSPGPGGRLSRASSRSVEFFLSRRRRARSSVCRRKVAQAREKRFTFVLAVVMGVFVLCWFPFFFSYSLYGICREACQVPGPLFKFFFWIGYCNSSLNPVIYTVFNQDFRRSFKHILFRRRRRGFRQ
# Adenosine receptor A1 = molecular target: T3, Adenosine receptor A1 (Homo sapiens, UniProt P30542)
# T3 sequence (P30542 whole entry): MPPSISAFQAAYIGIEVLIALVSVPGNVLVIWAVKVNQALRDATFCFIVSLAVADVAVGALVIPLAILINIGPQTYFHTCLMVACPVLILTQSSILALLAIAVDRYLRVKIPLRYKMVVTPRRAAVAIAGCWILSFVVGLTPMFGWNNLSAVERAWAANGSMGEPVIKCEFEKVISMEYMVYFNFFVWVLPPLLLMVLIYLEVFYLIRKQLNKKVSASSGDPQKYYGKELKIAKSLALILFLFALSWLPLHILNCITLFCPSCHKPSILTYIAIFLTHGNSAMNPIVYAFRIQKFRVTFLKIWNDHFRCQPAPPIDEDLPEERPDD
# Adenosine receptor A2a = Adenosine receptor A2a (Homo sapiens, UniProt P29274)
# [5] = molecular target: Sodium-dependent dopamine transporter (Homo sapiens, UniProt Q01959)
# [6] = molecular target: Gamma-aminobutyric acid receptor subunit alpha-1 (Rattus norvegicus, UniProt P62813); assay type: functional
# [7] = molecular target: T4, Muscarinic acetylcholine receptor M2 (Homo sapiens, UniProt P08172); assay type: functional, cell-based
# T4 sequence (P08172 whole entry): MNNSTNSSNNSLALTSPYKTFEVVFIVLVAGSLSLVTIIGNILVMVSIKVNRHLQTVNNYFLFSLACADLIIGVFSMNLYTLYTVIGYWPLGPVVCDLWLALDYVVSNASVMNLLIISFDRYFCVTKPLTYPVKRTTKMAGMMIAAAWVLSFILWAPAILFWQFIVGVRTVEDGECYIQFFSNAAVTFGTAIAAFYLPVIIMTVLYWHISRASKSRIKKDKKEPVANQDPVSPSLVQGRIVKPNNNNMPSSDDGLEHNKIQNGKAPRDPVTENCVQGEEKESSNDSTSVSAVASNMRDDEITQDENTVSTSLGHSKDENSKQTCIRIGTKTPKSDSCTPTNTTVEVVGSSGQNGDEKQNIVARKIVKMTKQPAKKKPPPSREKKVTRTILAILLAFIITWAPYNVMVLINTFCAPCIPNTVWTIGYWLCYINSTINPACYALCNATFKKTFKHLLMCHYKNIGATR
# [8] = molecular target: T5, Alpha-2A adrenergic receptor (Homo sapiens, UniProt P08913); assay type: functional, cell-based
# T5 sequence (P08913 whole entry): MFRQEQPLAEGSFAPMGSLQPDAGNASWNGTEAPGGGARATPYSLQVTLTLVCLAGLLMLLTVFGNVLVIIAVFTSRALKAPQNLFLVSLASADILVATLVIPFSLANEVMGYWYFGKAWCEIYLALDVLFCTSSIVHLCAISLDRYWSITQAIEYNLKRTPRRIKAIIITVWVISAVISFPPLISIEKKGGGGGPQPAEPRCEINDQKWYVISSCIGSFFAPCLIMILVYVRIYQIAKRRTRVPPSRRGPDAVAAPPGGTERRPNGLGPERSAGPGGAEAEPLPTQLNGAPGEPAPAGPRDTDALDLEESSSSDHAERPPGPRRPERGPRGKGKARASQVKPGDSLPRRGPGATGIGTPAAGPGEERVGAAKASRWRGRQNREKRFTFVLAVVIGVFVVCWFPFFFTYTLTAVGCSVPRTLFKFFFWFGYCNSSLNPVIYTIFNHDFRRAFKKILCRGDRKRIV
# Also: assay procedure not described here.
# Sequence of Gamma-aminobutyric acid receptor subunit alpha-1 (P62813 whole entry): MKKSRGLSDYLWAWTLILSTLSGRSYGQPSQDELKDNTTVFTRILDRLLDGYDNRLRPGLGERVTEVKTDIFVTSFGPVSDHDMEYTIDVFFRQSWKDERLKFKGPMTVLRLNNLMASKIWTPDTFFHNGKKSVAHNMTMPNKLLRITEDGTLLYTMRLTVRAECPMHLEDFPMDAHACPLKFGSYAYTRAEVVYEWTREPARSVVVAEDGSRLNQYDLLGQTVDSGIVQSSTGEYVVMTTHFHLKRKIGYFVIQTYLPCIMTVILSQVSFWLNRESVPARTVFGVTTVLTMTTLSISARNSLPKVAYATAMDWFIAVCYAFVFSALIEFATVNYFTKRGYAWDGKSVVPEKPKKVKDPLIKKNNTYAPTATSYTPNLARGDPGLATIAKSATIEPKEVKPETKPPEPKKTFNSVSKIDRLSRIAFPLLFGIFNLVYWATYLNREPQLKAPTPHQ
# Sequence of Adenosine receptor A2a (P29274 whole entry): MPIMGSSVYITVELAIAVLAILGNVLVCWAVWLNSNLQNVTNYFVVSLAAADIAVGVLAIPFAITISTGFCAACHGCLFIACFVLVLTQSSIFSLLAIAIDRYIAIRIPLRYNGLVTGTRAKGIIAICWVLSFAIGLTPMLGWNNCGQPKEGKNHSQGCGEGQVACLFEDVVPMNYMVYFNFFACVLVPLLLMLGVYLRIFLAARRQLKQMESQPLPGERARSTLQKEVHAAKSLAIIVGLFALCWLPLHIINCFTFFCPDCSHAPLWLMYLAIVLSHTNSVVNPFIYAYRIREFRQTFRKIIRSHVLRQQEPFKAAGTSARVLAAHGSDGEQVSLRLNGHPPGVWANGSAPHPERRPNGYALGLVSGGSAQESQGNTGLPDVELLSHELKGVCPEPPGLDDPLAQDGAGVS
# Sequence of Sodium-dependent dopamine transporter (Q01959 whole entry): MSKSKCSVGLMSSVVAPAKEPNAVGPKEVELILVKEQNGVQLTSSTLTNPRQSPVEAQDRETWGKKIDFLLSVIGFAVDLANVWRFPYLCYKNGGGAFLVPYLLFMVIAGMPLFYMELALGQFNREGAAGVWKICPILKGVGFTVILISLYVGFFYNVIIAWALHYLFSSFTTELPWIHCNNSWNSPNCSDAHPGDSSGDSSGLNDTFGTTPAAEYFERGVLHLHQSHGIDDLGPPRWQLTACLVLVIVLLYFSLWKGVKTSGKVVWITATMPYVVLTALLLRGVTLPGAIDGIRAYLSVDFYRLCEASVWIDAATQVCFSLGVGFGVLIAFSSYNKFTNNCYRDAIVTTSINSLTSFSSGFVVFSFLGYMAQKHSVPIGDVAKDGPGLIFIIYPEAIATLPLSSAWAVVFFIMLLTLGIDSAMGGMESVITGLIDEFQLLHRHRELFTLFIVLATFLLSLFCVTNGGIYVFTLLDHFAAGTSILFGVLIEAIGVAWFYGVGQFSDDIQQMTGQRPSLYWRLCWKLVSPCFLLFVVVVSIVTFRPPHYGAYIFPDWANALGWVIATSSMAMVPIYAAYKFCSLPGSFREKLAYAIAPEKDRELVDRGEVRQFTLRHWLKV
# Sequence of Neuronal acetylcholine receptor subunit alpha-4 (P43681 whole entry): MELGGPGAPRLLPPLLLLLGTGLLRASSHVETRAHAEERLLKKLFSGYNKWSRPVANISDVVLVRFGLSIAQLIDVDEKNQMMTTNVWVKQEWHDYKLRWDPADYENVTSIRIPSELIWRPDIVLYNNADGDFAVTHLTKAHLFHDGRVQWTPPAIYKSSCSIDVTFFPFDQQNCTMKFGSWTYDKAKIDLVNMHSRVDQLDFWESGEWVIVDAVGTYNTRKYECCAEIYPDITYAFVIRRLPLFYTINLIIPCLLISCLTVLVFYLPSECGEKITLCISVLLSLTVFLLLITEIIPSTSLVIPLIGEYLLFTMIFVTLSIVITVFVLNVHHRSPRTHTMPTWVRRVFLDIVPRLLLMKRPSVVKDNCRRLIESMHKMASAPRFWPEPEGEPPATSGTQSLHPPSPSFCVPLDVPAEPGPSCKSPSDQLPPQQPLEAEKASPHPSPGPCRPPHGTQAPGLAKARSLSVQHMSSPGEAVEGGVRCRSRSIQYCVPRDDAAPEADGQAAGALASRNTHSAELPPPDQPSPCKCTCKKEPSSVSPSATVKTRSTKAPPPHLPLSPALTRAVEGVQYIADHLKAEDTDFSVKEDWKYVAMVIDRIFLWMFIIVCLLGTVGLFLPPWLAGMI
# Sequence of Voltage-gated inwardly rectifying potassium channel KCNH2 (Q12809 whole entry): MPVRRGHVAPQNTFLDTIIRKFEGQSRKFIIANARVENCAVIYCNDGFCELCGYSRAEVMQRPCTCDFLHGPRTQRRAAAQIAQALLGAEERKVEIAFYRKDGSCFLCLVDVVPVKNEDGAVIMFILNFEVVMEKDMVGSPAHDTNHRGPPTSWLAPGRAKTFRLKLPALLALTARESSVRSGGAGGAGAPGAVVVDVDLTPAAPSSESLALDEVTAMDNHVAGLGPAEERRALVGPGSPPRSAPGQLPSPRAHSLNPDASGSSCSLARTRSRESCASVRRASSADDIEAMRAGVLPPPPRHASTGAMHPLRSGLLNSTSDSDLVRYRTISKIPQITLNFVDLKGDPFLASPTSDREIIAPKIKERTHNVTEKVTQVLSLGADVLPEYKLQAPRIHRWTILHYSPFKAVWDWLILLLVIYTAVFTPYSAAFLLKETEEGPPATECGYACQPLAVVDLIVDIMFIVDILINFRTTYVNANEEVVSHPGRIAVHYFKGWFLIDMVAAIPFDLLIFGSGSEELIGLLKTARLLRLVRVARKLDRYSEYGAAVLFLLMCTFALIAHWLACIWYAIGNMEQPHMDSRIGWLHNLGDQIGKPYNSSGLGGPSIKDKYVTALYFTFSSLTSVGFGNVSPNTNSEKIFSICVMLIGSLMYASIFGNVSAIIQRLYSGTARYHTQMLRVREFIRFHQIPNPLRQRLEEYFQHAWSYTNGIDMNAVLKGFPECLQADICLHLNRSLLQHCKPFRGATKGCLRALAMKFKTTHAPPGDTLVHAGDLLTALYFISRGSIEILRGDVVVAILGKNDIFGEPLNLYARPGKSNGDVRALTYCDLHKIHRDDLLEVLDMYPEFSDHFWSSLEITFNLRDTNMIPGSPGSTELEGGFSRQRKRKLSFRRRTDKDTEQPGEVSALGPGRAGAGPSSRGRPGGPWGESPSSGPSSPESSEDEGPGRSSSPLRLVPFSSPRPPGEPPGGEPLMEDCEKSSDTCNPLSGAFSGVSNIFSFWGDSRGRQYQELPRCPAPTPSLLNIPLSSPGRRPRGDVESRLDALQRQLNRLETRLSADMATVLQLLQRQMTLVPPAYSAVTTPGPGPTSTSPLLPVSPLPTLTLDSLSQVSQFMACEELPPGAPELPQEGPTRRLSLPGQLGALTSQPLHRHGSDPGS
# Sequence of Bile salt export pump (O95342 whole entry): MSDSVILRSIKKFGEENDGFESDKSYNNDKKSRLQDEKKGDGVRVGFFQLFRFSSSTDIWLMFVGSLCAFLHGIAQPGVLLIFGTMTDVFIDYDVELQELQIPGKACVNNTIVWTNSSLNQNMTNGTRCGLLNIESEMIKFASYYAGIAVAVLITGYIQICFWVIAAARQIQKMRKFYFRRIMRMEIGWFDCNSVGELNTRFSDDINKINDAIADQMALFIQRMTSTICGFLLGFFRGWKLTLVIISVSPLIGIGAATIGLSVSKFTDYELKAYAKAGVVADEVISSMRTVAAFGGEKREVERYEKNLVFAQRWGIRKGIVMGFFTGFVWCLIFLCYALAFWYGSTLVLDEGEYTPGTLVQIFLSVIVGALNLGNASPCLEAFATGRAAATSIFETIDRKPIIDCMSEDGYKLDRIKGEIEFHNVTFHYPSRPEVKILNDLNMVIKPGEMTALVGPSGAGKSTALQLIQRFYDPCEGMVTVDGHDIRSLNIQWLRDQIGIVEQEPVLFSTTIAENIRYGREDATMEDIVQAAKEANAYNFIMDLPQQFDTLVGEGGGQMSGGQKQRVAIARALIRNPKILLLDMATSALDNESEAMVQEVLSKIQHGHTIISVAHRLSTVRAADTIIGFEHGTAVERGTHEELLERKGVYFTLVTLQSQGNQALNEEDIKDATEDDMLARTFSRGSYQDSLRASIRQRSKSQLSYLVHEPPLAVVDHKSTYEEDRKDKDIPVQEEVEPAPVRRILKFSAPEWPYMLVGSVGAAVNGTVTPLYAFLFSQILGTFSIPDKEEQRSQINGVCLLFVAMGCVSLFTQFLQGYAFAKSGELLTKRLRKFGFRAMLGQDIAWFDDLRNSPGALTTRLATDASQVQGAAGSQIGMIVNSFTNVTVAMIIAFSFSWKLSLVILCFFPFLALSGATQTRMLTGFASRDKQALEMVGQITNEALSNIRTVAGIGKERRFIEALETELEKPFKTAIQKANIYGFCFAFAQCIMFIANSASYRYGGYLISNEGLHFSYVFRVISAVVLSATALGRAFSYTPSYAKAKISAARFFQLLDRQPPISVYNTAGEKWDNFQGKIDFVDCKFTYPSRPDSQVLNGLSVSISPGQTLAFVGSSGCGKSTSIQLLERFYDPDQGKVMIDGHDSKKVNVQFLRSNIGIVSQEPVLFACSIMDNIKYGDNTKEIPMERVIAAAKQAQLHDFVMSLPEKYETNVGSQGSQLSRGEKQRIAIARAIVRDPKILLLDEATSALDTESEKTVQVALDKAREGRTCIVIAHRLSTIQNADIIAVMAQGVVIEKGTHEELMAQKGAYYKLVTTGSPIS
smiles,measurement,setting,value
O=C1c2c(O)c(=O)ccn2N([C@@H]2c3ccccc3SCc3c2ccc(F)c3F)[C@@H]2COCCN12 [BALOXAVIR],AC50,Bile salt export pump,24 µM
same,AC50,[1],> 30 µM
COc1cc(Nc2c(C#N)cnc3cc(OCCCN4CCN(C)CC4)c(OC)cc23)c(Cl)cc1Cl [BOSUTINIB],AC50,[2],32.5 µM
same,AC50,[3],> 10 µM
same,AC50,[4],1 µM
same,AC50,Adenosine receptor A1,> 30 µM
same,AC50,Adenosine receptor A2a,> 30 µM
same,AC50,[5],8.75 µM
same,AC50,[6],> 10 µM
CCO/N=C(\C(=O)N[C@@H]1C(=O)N2C(C(=O)[O-])=C(Sc3nc(-c4cc[n+](C)cc4)cs3)CS[C@H]12)c1nsc(N)n1 [CEFTAROLINE],AC50,[1],26 µM
Cc1cc(O)cc(C)c1Cl [CHLOROXYLENOL],AC50,Bile salt export pump,> 300 µM
same,AC50,[1],> 30 µM
CN(C)CCCN1c2ccccc2CCc2ccc(Cl)cc21 [CLOMIPRAMINE],AC50,[3],> 10 µM
same,AC50,[7],> 10 µM
same,AC50,[8],> 10 µM
same,AC50,[5],14.6 µM
same,AC50,[6],> 10 µM
CC(=O)OCC(=O)[C@@]1(O)CC[C@H]2[C@@H]3CCC4=CC(=O)CC[C@]4(C)[C@H]3C(=O)C[C@@]21C [CORTISONE ACETATE],AC50,[4],> 30 µM
same,AC50,Bile salt export pump,> 300 µM
same,AC50,[6],> 30 µM
C[N+](C)(C)CCCCCCCCCC[N+](C)(C)C [DECAMETHONIUM],AC50,[1],> 30 µM
O=C1c2ccccc2C(=O)C1C(=O)C(c1ccccc1)c1ccccc1 [DIPHENADIONE],AC50,[1],> 30 µM
CCC(=O)O[C@H]1[C@H](O[C@@H]2[C@@H](C)[C@H](O[C@H]3C[C@@](C)(OC)[C@@H](O)[C@H](C)O3)[C@@H](C)C(=O)O[C@H](CC)[C@@](C)(O)[C@H](O)[C@@H](C)C(=O)[C@H](C)C[C@@]2(C)O)O[C@H](C)C[C@@H]1N(C)C [ERYTHROMYCIN PROPIONATE],AC50,Bile salt export pump,> 300 µM
CCOC(=O)c1ccc(O)cc1 [ETHYLPARABEN],AC50,Bile salt export pump,> 300 µM
same,AC50,[1],> 30 µM
O=C1[C@H](CC[C@H](O)c2ccc(F)cc2)[C@@H](c2ccc(O)cc2)N1c1ccc(F)cc1 [EZETIMIBE],AC50,[1],16 µM
NC(N)=Nc1nc(CSCCC(N)=NS(N)(=O)=O)cs1 [FAMOTIDINE],AC50,[2],> 30 µM
same,AC50,[4],> 10 µM
same,AC50,[7],> 10 µM
same,AC50,Adenosine receptor A1,> 30 µM
same,AC50,Bile salt export pump,> 300 µM
same,AC50,[8],> 10 µM
same,AC50,Adenosine receptor A2a,> 30 µM
same,AC50,[5],> 10 µM
same,AC50,[6],> 10 µM
O=C(COc1ccc(Cl)cc1)N1CCN(Cc2ccc3c(c2)OCO3)CC1 [FIPEXIDE],AC50,Bile salt export pump,48 µM
same,AC50,[1],12 µM
Cc1c(-c2ccccc2)oc2c(C(=O)OCCN3CCCCC3)cccc2c1=O [FLAVOXATE],AC50,Bile salt export pump,220 µM
same,AC50,[1],3.8 µM
CCC(=O)c1c(O)cc(O)cc1O [FLOPROPIONE],AC50,[1],> 30 µM
CC1(C)O[C@@H]2C[C@H]3[C@@H]4C[C@H](F)C5=CC(=O)CC[C@]5(C)[C@H]4[C@@H](O)C[C@]3(C)[C@]2(C(=O)CO)O1 [FLURANDRENOLIDE],AC50,[1],> 30 µM
CC(C)C(=O)Nc1ccc([N+](=O)[O-])c(C(F)(F)F)c1 [FLUTAMIDE],AC50,[2],> 10 µM
same,AC50,[3],> 30 µM
same,AC50,[4],> 10 µM
same,AC50,[7],> 10 µM
same,AC50,Adenosine receptor A1,> 30 µM
same,AC50,[8],> 10 µM
same,AC50,Adenosine receptor A2a,> 30 µM
same,AC50,[5],> 10 µM
same,AC50,[6],> 10 µM
same,AC50,[1],2.53 µM
C#C[C@]1(O)CC[C@H]2[C@@H]3CCC4=CC(=O)CC[C@@H]4[C@H]3CC[C@@]21CC [LEVONORGESTREL],AC50,Bile salt export pump,94 µM
same,AC50,[1],> 30 µM
OC[C@@H](O)[C@@H](O)[C@H](O)[C@H](O)CO [MANNITOL],AC50,Bile salt export pump,> 300 µM
CN1CCCC(CN2c3ccccc3Sc3ccccc32)C1 (centres undefined) [MEPAZINE],AC50,Bile salt export pump,100 µM
same,AC50,[1],3.77 µM
Sc1ncnc2nc[nH]c12 [MERCAPTOPURINE ANHYDROUS],AC50,Bile salt export pump,> 300 µM
same,AC50,[1],> 30 µM
C[N+]1(C)[C@@H]2C[C@@H](OC(=O)[C@H](CO)c3ccccc3)C[C@H]1[C@@H]1O[C@@H]12 [METHSCOPOLAMINE],AC50,Bile salt export pump,> 300 µM
same,AC50,[1],> 30 µM
CC(=O)Oc1c(C)cc(OCC(O)CNC(C)C)c(C)c1C (centres undefined) [METIPRANOLOL],AC50,[1],> 30 µM
O=C1CC[C@@]2(O)[C@H]3Cc4ccc(O)c5c4[C@@]2(CCN3CC2CC2)[C@H]1O5 [NALTREXONE],AC50,Bile salt export pump,> 300 µM
same,AC50,[1],> 30 µM
CCc1nn(CCCN2CCN(c3cccc(Cl)c3)CC2)c(=O)n1CCOc1ccccc1 [NEFAZODONE],AC50,[2],19.2 µM
same,AC50,[4],0.63 µM
same,AC50,Adenosine receptor A1,> 30 µM
same,AC50,Bile salt export pump,6 µM
same,AC50,Adenosine receptor A2a,> 30 µM
same,AC50,[6],> 10 µM
same,AC50,[1],0.89 µM
OCCN1CCN(CCCN2c3ccccc3C=Cc3ccccc32)CC1 [OPIPRAMOL],AC50,[2],> 30 µM
same,AC50,[3],> 30 µM
same,AC50,[4],6.7 µM
same,AC50,[7],> 30 µM
same,AC50,Adenosine receptor A1,> 30 µM
same,AC50,[8],> 30 µM
same,AC50,Adenosine receptor A2a,> 30 µM
same,AC50,[5],> 30 µM
same,AC50,[6],> 30 µM
same,AC50,[1],14 µM
CC(N/C(=N\C#N)Nc1ccncc1)C(C)(C)C (centres undefined) [PINACIDIL ANHYDROUS],AC50,Bile salt export pump,290 µM
same,AC50,[1],> 30 µM
CC(O)CO (centres undefined) [PROPYLENE GLYCOL],AC50,Bile salt export pump,> 300 µM
same,AC50,[1],> 30 µM
CN(C)C(=O)Oc1ccc[n+](C)c1 [PYRIDOSTIGMINE],AC50,Bile salt export pump,> 300 µM
O=C(NC[C@H]1CN(c2ccc(N3CCOCC3=O)cc2)C(=O)O1)c1ccc(Cl)s1 [RIVAROXABAN],AC50,[4],> 30 µM
same,AC50,[7],> 30 µM
same,AC50,Bile salt export pump,100 µM
same,AC50,[8],> 30 µM
same,AC50,[5],> 30 µM
same,AC50,[6],> 30 µM
Cc1cc2c(cc1CC(=O)c1sccc1S(=O)(=O)Nc1onc(C)c1Cl)OCO2 [SITAXENTAN],AC50,Bile salt export pump,9.7 µM
CC(C)OC(=O)[C@H](C)N[P@](=O)(OC[C@H]1O[C@@H](n2ccc(=O)[nH]c2=O)[C@](C)(F)[C@@H]1O)Oc1ccccc1 [SOFOSBUVIR],AC50,Bile salt export pump,270 µM
same,AC50,[1],> 30 µM
Cc1ccc(O)c2ncccc12 [TILIQUINOL],AC50,[1],> 30 µM
CC(=O)OC[C@H]1O[C@@H](n2ccc(=O)[nH]c2=O)[C@H](OC(C)=O)[C@@H]1OC(C)=O [URIDINE TRIACETATE],AC50,Bile salt export pump,> 300 µM
same,AC50,[1],> 30 µM
CCOC(=O)N[C@@H]1CC[C@@H]2[C@@H](C1)C[C@H]1C(=O)O[C@H](C)[C@H]1[C@H]2/C=C/c1ccc(-c2cccc(F)c2)cn1 [VORAPAXAR],AC50,Bile salt export pump,2.2 µM
same,AC50,[1],3.9 µM
